This is an account of results in PubChem BioAssay (NCI).

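Interpolation was linear, between the two tested concentrations surrounding the appropriate level; five concentrations were tested over 48 hours in 96-well plates. GI50 is the concentration that inhibits growth by half. TGI: total growth inhibition.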

What all share (test): NCI anticancer screen, dose series, 48 h
The subject of assay [1] is OVCAR-8 ovarian.
Assay [2] has as its system SN12C renal.
Assay [3] concerns DU-145 prostate.
Assay [4] deals with HCT-15 colon.
The subject of assay [5] is MOLT-4 leukemia.
The subject of assay [6] is LOX IMVI melanoma.
The subject of assay [7] is U251 CNS.
The test system of assay [8] is MALME-3M melanoma.
Assay [9] deals with SK-MEL-5 melanoma.
Assay [10] has as its system HOP-62 NSCLC.

`COc1cc(-c2nn(-c3cccc(NC(=O)c4cccc(C(F)(F)F)c4)c3)cc2-c2ccncc2)ccc1Cl`: the GI50 in assay [1] is 2 µM; in [2], 3.31 µM; in [3], 1.76 µM; in assay [4], 1.55 µM; in assay [5] it was 2.01 µM; in assay [6], 1.39 µM. Also, the GI50 is 1.62 µM in [7], 1.89 µM in [8] and 0.978 µM in [9]. For the same compound, the TGI in assay [1] was over 50 µM; in assay [2], over 50 µM; in assay [3], 32.1 µM; in assay [4], over 50 µM; in [5], over 50 µM; in assay [6] it was over 50 µM. Moreover, the values for the TGI in [7], in assay [8] and in [9] were over 50 µM, over 50 µM and 2.47 µM, respectively.

In the case of `O=NNc1nc(-c2ccccn2)nc2ccccc12`, the TGI was over 100 µM in assay [1]; over 100 µM in assay [2]; over 100 µM in [3]; 14.7 µM in assay [4]; over 100 µM in assay [5]; over 100 µM in assay [7]. Moreover, the figures for the TGI in [10], in assay [8] and in assay [9] were 48.1 µM, 19.6 µM and over 100 µM, respectively.

For `CCNc1nc(-c2ccc(Cl)c(OC)c2)c(-c2ccnc(NCCNS(=O)(=O)c3ccc(Cl)cc3)n2)s1`, the GI50 in assay [1] was 3.88 µM; in assay [2] it was 3.41 µM; in assay [3], 3.94 µM; in assay [4], 3.36 µM; in assay [6], 2.32 µM; in [7], 3.24 µM. The GI50 in [10] was 3.2 µM; in assay [8], 2.2 µM; in [9], 1.56 µM. For the same compound, the TGI in assay [1] was over 100 µM; in [2], over 100 µM; in assay [3], over 100 µM; in assay [4], over 100 µM; in assay [6] it was 5.69 µM; in [7], 10.3 µM. Also, the TGI came out at 7.69 µM in [10], 7.39 µM in assay [8] and 3.23 µM in [9].

Turning to `COc1ccc(-c2ccc(/C=N/n3c(COc4ccc(Cl)c(C)c4)nn(CN4CCOCC4)c3=S)o2)c([N+](=O)[O-])c1`, the GI50 in [1] is 33.5 µM; in assay [2] it was 21.3 µM; in [3], 38 µM; in [4], 30.7 µM; in [5] it was 21.8 µM; in assay [7], 30.5 µM. Besides, the GI50 in assay [10] was 38.6 µM; in assay [8], 17.9 µM. Moreover, the TGI in [1] is over 100 µM; in assay [2], 48.1 µM; in [3] it was over 100 µM; in assay [4] it was over 100 µM; in assay [5], 70.1 µM; in assay [7], over 100 µM. Also, the TGI was over 100 µM in assay [10] and 43.1 µM in [8].

Consider `Clc1ccc(N=CNc2ccc(-c3nc4ccccc4[nH]3)cc2)cc1`, for which the GI50 was 64.1 µM in assay [1]; over 100 µM in [2]; 59.2 µM in assay [3]; 33.1 µM in assay [4]; over 100 µM in assay [5]; 1.37 µM in [6]. Also, the GI50 in [7] is 20.9 µM; in assay [10], over 100 µM; in [9], 39.9 µM. Further, the TGI was over 100 µM in [1]; over 100 µM in [2]; over 100 µM in assay [3]; over 100 µM in assay [4]; over 100 µM in [5]; 24.8 µM in assay [6]. Further, the TGI in assay [7], in assay [10] and in assay [9] was over 100 µM in each case.

As to `CC(C)C12CCC3(CCC4C(C)(C(=O)O)CCCC4(C)C3C1)C(CN)C2` (configuration not stated), the TGI in assay [1] was over 100 µM; in assay [2] it was 43.3 µM; in assay [3] it was over 100 µM; in assay [4], over 100 µM; in assay [6] it was 34.7 µM; in assay [7], over 100 µM. Moreover, the TGI in assay [10] was over 100 µM; in assay [8], over 100 µM; in [9], 86.2 µM.

On to `CC1=C(C(=O)OC(C)(C)C)C(c2ccc([N+](=O)[O-])cc2)C(C(=O)OC(C)(C)C)=C(C)N1`, for which the TGI in [1] came out at 42.3 µM; in assay [2] it was 35.4 µM; in assay [3], 62.4 µM; in assay [4], 62.5 µM; in [5], 41.6 µM; in [6], 32.9 µM. The TGI in assay [7] stood at 39.3 µM; in assay [10], 40.8 µM; in assay [9] it was 32.9 µM.

As to `COc1cc(COC(=O)NC(Cc2cccs2)C(=O)O)c([N+](=O)[O-])cc1OC` (configuration not stated), the TGI in assay [1], in [2], in assay [3], in [4], in assay [5] and in assay [7] was over 100 µM in each case. For the same compound, the TGI in assay [10], in assay [8] and in assay [9] was over 100 µM throughout.

For `Cc1cc2c(SCc3ccccc3Cl)nc(N)nc2nc1C`, the TGI in [1], in [2], in assay [3], in assay [4], in assay [6] and in assay [7] was over 100 µM throughout. Moreover, the TGI in [10], in [8] and in assay [9] was over 100 µM each time.

Take `O=C(Nc1ccccc1)Oc1ccccc1C1CCCCC1`: the TGI is over 100 µM in assay [1]; 41.1 µM in [2]; 40.9 µM in assay [4]; over 100 µM in [5]; 26.8 µM in assay [6]; 30.7 µM in [7]. Also, the TGI in assay [10] was found to be 59.6 µM; in assay [8], 57.1 µM; in assay [9], 26.9 µM.

With `CC(=O)OCC1OC(OC(C)=O)C(NC#N)C(OC(C)=O)C1OC(C)=O` (configuration not stated), the TGI in assay [1], in assay [2], in assay [4], in [5], in [6] and in assay [7] was over 100 µM each time. For the same compound, the TGI in assay [10], in assay [8] and in assay [9] was over 100 µM in each case.

For the compound `N#Cc1c(N)nc(N2CCOCC2)c(C#N)c1-c1ccc(Cl)cc1Cl`, the GI50 in assay [1] was 18.2 µM; in assay [2], 16.1 µM; in assay [3], 24.6 µM; in assay [4], 15.5 µM; in [5], 24.2 µM; in assay [6] it was 16.7 µM. In addition, the GI50 in assay [7] was 17.4 µM; in assay [10], 28 µM; in [9], 14.7 µM. For the same compound, the TGI in assay [1] was 54.5 µM; in [2] it was 43.3 µM; in assay [3], 81 µM; in assay [4], 56.4 µM; in assay [5] it was over 100 µM; in assay [6], 34.2 µM. In addition, the TGI in [7] came to 42.4 µM; in assay [10] it was 91.6 µM; in assay [9], 29.2 µM.

`Cc1nc(-c2cccnc2)sc1C(=O)/C=C/c1ccc(Cl)cc1Cl`: the TGI in [1], in assay [2], in [4], in [5], in assay [6] and in [7] was over 100 µM each time. Besides, the TGI in assay [10], in [8] and in [9] was over 100 µM in each case.

Take `COC(=O)N/N=C(\c1nc2ccc(Cl)cc2[nH]c1=O)C(O)c1ccc([N+](=O)[O-])cc1` (configuration not stated): the TGI in [1], in assay [2], in [4], in [5], in assay [6] and in assay [7] was over 100 µM throughout. Besides, the TGI in assay [10], in assay [8] and in [9] was over 100 µM in each case.

As for `CN1C/C(=C\c2ccco2)c2nc(N)nc(-c3ccco3)c2C1`, the TGI in assay [1], in [2], in assay [4], in assay [5], in assay [6] and in assay [7] was over 100 µM each time. For the same compound, the TGI in assay [10], in [8] and in assay [9] was over 100 µM each time.

Take `CCCNc1ncnc2c1cnn2C`: the TGI in assay [1], in assay [2], in assay [4], in assay [5], in assay [6] and in [7] was over 100 µM throughout. Besides, the TGI in assay [10], in [8] and in assay [9] was over 100 µM in each case.

For the compound `Nc1nc(N)c(-c2ccccc2)c(C(=O)Nc2nccs2)n1`, the TGI in [1], in [2], in assay [4], in assay [5], in assay [6] and in [7] was over 100 µM throughout. Besides, the TGI in assay [10], in [8] and in [9] was over 100 µM throughout.

Take `CCOC(=O)c1c(/C=N\Nc2ccccc2)nc2ccccc2c1-c1ccccc1`: the TGI in assay [1] was over 100 µM; in assay [2], over 100 µM; in [4] it was over 100 µM; in [5], 68.8 µM; in assay [6], over 100 µM; in [7], over 100 µM. In addition, the figures for the TGI in assay [10], in assay [8] and in assay [9] were over 100 µM, 90.5 µM and 85.6 µM, respectively.

On to `Cc1c(C(=O)C/C(=N/NC(=O)CC#N)C(N)=O)[n+](=O)c2ccccc2n1[O-]`, for which the TGI in assay [1] was over 100 µM; in assay [2], 97.7 µM; in [4] it was over 100 µM; in assay [5], over 100 µM; in assay [6], over 100 µM; in assay [7], over 100 µM. Further, the TGI in assay [10], in [8] and in [9] was over 100 µM throughout.

As for `Nc1ccc2ncc(Nc3ccc(Cl)c(Cl)c3)nc2c1`, the TGI was 83.3 µM in assay [1]; over 100 µM in [2]; over 100 µM in [4]; 65.1 µM in assay [5]; over 100 µM in assay [6]; 80.1 µM in assay [7]. The TGI in assay [10] is 84.3 µM; in assay [8], 55.8 µM; in assay [9], 36.1 µM.

Turning to `COc1cc([C@H]2c3cc(O)c(OC)cc3C[C@]3(O)[C@@H]2CO[C@@H]3O)ccc1O`, the TGI in assay [1], in assay [2], in assay [3], in [4], in assay [5] and in assay [6] was over 100 µM throughout. Further, the TGI in assay [7], in assay [10] and in [9] was over 100 µM in each case.

Regarding `O=C(/C=C/c1ccc(OCC(=O)N2CCN(c3ccccc3)CC2)cc1)c1ccccc1`, the TGI was over 67.5 µM in [1]; over 100 µM in [2]; over 100 µM in [4]; over 25.2 µM in assay [5]; 10.7 µM in assay [6]; 38 µM in [7]. The TGI was over 100 µM in assay [10], over 58.2 µM in [8] and over 53 µM in assay [9].

Take `Cc1cc(C2(c3cc(C)c(O)c4ncccc34)OC(=O)c3ccccc32)c2cccnc2c1O`: the TGI is over 100 µM in [1]; 12.1 µM in assay [2]; over 100 µM in assay [3]; over 100 µM in assay [5]; over 100 µM in [6]; over 100 µM in [7]. Further, the TGI in assay [10] was over 100 µM; in [8], over 100 µM; in [9] it was 0.0574 µM. For the same compound, the results for the GI50 in [3] and in [10] were 0.242 µM and 0.643 µM, respectively.
